Laboratory results from US9700609B2, “Compositions for treatment and/or prevention of autoimmune disorders” (University of Florida Research Foundation, Incorporated, priority 2013, dated 2017).

How the values were obtained:
[1] = system: CD11b+ and CD11c+ leukocytes (APC); assay: APC frequency and MHC expression by flow cytometry in splenocyte cultures with graded doses of bacteria and anti-CD3; type: cell-based, NOD and NOR mice
Description: FIG. 8. LjN6.2, but not LrTD1, increases APC activation in NOD mice. Spleenocytes derived from NOD or NOR mice, were cultured with graded doses of LjN6.2 or LrTD1 in the presence of anti-CD3. Following 48 hours incubation, samples were analyzed through flow cytometry for APC activation. A) Histograms showing changes in CD11b and CD11c frequencies upon treatment of NOD in vitro leukocyte cultures with LjN6.2 (red), LrTD1(black) or CD3 (shaded). B) Graphs showing percentage of CD11b^+ and CD11c^+ leukocytes in NOD and NOR cells cultures incubated with graded doses of bacteria as indicated. C) Graphs showing changes in MHC expression levels on CD11c^+ and CD11b^+ APC upon treatment with graded doses of LjN6.2 (shaded square) or LrTD1 (open square).
(§1) Whole lymphocytes or BMOC were incubated with 4 μg/mL anti-CD3, (LjN6.2) and/or L. reuteri TD1 (LrTD1) at various concentrations as indicated. At 48 hours, 100 μL of supernatant was removed from each well and replenished with fresh medium. Cytokine ELISAs were subsequently performed on harvested supernatants. ELISA kits were purchased from BD Bioscience: anti-IFNγ (555138; BD Biosciences, San Diego, Calif.), and anti-IL6 (555240). Capture mAb (555068) and detection mAb (555067) for IL17 were purchased from BD Biosciences. Cytokine standard for IL-17A was purchased from eBioscience (14-8171-80).
(§2) Single cell suspensions of pooled LN (axillary, inguinal, brachial, mesenteric, and superficial cervical), and spleen were stained with the following mAbs for flow-cytometric analysis: anti-CD4-Pacific Blue (RM4-5), anti-MHC I-FitC (KH95), anti-CD11c-PE (N418; eBioscience, San Diego, Calif.), anti-B220-APC (RA3-6B2, eBioscience), anti-CD11b-A700 (M1/70), anti-CD11b-FitC (M1/70, eBioscience), […] (N418, eBioscience), anti CD86-A700 (GL1), anti-CD80-PE (16-10A1), DEC 205-APC (205yekta) and anti-MHC II-FC (39-10-8) mAb. All flow cytometry antibodies were purchased from BD PharMingen unless otherwise stated. 50,000-100,000 live events were collected on a LSRII (BD PharMingen) and analyzed using FlowJo software (Tree Star, San Carlos, Calif.). The absolute numbers of cells recovered from various organs was determined by multiplying the total number of cells isolated from various tissues by the percentage of total cells bearing a lineage specific marker denoted by flow cytometry.

[2] = system: BBDP rats; conditions: cited from earlier work; for Th17 bias: BBDP rat and NOD mouse (Lau et al. (2011)); for T1D resistance: oral transfer to BBDP rats (Valladares et al. (2010))
[3] = system: DEC205 on CD11c+ DC; assay: DEC205 expression on CD11c+ DC in splenocyte cultures, flow cytometry; type: cell-based, NOD and NOR mice; conditions: both NOD and NOR CD11c+ DC, dose dependent
Description: FIG. 9. Enhanced DC maturation mediated by LjN6.2 surface antigens. Spleenocytes derived from NOD or NOR mice, were cultured with graded doses of LjN6.2 or LrTD1in the presence of anti-CD3, as in FIG. 4. Subsequent to incubation, samples were analyzed for expression of the endocytic marker, DEC 205. A) Overlay histograms showing changes in DEC205 frequency on CD11c^+ DC upon treatment of NOD cultures with varying doses of LjN6.2 and LrTD1. B) Graphical representations of DEC205 expression on CD11c^+ DC present within NOD and NOR cultures upon incubation with varying doses of LjN6.2 and LrTD1. […]
as §2, with “All flow cytometry antibodies were purchased from BD PharMingen unless otherwise stated.” left out, “The absolute numbers of cells recovered from various organs was determined by multiplying the total number of cells isolated from various tissues by the percentage of total cells bearing a lineage specific marker denoted by flow cytometry.” left out

[4] = system: BMDC; assay: IL6 production by BMDC incubated with LjN6.2 or lysed bacterial components, ELISA; type: cell-based, NOD mice; conditions: NOD BMDC matured with GM-CSF
Description: FIG. 9. Enhanced DC maturation mediated by LjN6.2 surface antigens. Spleenocytes derived from NOD or NOR mice, were cultured with graded doses of LjN6.2 or LrTD1in the presence of anti-CD3, as in FIG. 4. Subsequent to incubation, samples were analyzed for expression of the endocytic marker, DEC 205. A) Overlay histograms showing changes in DEC205 frequency on CD11c^+ DC upon treatment of NOD cultures with varying doses of LjN6.2 and LrTD1. B) Graphical representations of DEC205 expression on CD11c^+ DC present within NOD and NOR cultures upon incubation with varying doses of LjN6.2 and LrTD1. C) Maturing DC (BMDC), derived from NOD mice were matured in the presence of GM-CSF, followed by incubation with LjN6.2 or beadbeater lysed LjN6.2 bacterial cellular components. Left, graph showing IL6 production by BMDC incubated with either intact LjN6.2, or fractional equivalents of nonviable lysed LjN6.2 components defined by ultracentrifugation as membrane (pellet components) or cytosolic (soluble) components. […]
Bacterial cells were incubated with 0.1 mm glass beads and homogenized through the use of a beadbeater (Qbiogene) according to manufacturers' instructions. […] Efficiency of bacterial disruption was assessed through the culture of bacterial lysates on agar plates under anaerobic conditions.

[5] = system: LN cells (CD11b+ leukocytes); assay: CD11b and CD40 expression in pooled LN cells cultured with bacteria, flow cytometry; type: cell-based, NOD mice; conditions: NOD pooled LN cells, 48 hour incubation
Description: (§3) FIG. 12. LjN6.2 but not LrTD1 up-regulates expression of CD11b. LN cells (brachial, inguinal, cervical and mesenteric) were isolated from NOD mice and pooled, followed by culturing in the presence or absence of bacteria. After 48 hour incubation, supernatants were removed and cells were analyzed by flow cytometry. Please note that concentration 1 (Lj1 and Lr1) is 3 fold higher than concentration 2 (Lj2 and Lr2).
as §3, with “13. […]” for “12. LjN6.2 but not LrTD1 up-regulates expression of CD11b.”, “pooled” for “pooled,”, “culture” for “culturing”, “cytometry. CD11b^+ cells were first gated and then further analyzed for CD40 expression.” for “cytometry.”
Single cell suspensions of pooled LN (axillary, inguinal, brachial, mesenteric, and superficial cervical), and spleen were stained with the following mAbs for flow-cytometric analysis: anti-CD4-Pacific Blue (RM4-5), anti-MHC I-FitC (KH95), anti-CD11c-PE (N418; eBioscience, San Diego, Calif.), anti-B220-APC (RA3-6B2, eBioscience), anti-CD11b-A700 (M1/70), anti-CD11b-FitC (M1/70, eBioscience), […] (N418, eBioscience), anti CD86-A700 (GL1), anti-CD80-PE (16-10A1), DEC 205-APC (205yekta) and anti-MHC II-FC (39-10-8) mAb. […]

[6] = system: T lymphocytes; assay: IFNγ production and IFNγ+/IL17+ T lymphocytes after bacterial treatment; type: cell-based
Description: FIG. 14. L. johnsonii modulates adaptive immune response. […] Also, L. johnsonii increased the percentages of IFNγ^+ and IL17^+ T lymphocytes in a dose dependent manner.
as §1

[7] = system: NOD mice; assay: Systemic Th17 bias after oral feeding or pulsed DC vaccination; type: in vivo; conditions: oral feeding
From the text: In apparent contrast, T1D onset can also be inhibited through the generation of Foxp3^+ regulatory T cells which can be mediated by tolerogenic, immature DC. […] Therefore, restoration of DC function by oral administration of specific bacteria, or administration of a vaccine composed of gut flora modified DC, can be used to restore immune tolerance.

L. reuteri TD1 [LrTD1]
modulation of MHC ([1]; CD11c+ and CD11b+ APC, in contrast to LjN6.2): reduced, or negligible
Th17 bias [2]: nor mediated a Th17 bias
T1D resistance [2]: neither conferred T1D resistance

Lactobacillus johnsonii N6.2 [LjN6.2]
levels of MHC classes I and II on CD11c+ DC ([1]; NOD derived CD11c+ DC, dose dependent): upregulated
frequency of both CD11b+ and CD11c+ leukocytes ([1]; NOD derived primary cell cultures, graded doses, anti-CD3, 48 hours): consistently up-regulated
frequency of CD11b+ and CD11c+ leukocytes ([1]; NOR cultures, graded doses, anti-CD3, 48 hours): only moderately increased
MHCI and MHCII expression on CD11c+ DC ([1]; NOR derived CD11c+ DC): failed to specifically increase
CD11b+MHCIhi leukocytes ([1]; both NOD and NOR cultures): decrease
frequency of CD11b+MHCIIhi leukocytes ([1]; both NOD and NOR cultures): increase
DEC205 expression on CD11c+ DC [3]: down-regulation
IL6 production by BMDC [4]: copious amounts
CD11b expression [5]: up-regulates
CD40 expression on CD11b+ leukocytes [5]: up-regulated
IFNγ production ([6]; compared with L. reuteri): more profoundly than L. reuteri
percentages of IFNγ+ and IL17+ T lymphocytes ([6]; dose dependent): increased
systemic Th17 bias [7]: sufficient to mediate a systemic Th17 bias
Th17 bias [2]: APC dependent, Th17 bias observed
T1D resistance [2]: sufficient to confer T1D resistance
